This is an account of results in PMC11638965, “Leveraging Dual-Ligase Recruitment to Enhance Protein Degradation via a Heterotrivalent Proteolysis Targeting Chimera” (Journal of the American Chemical Society, 2024).

For orientation: IC50 means the concentration at which inhibition is half-maximal. By EC50 is commonly meant the concentration that produces a half-maximal response. A higher EC50 goes with a less potent agent.

Entries after “also recorded” stand apart in the source; their conditions may differ. Like-named read-outs stand apart in the source and are kept apart here.

One experiment concerns the target CRBN (Homo sapiens, UniProt Q96SW2). Put plainly: NanoBRET lytic and live cell target engagement assay. Details: host or cells: HEK293, transient. The format is binding. The note with it: for IC50: HEK293 cells with NanoLuc-CRBN, CRBN fluorescent tracer. The protocol: CRBN (N2910, Promega) and VHL (N2930, Promega) NanoBRET target engagement assays were performed according to manufacturer’s instructions. Transfection complexes were prepared using 1 mL Opti-MEM, 30 μL FuGENE HD, and either 9 μg/mL DDB1 Expression Vector and 1 μg/mL NanoLuc-CRBN fusion vector, or 9 μg/mL Transfection Carrier DNA and 1 μg/mL VHL-NanoLuc fusion vector. Transfection complexes were allowed to form for 20 min at room temperature, then were added to 20 mL of HEK293 cells at density of 200,000 cells/mL. Transfected HEK293 cells were plated in a T75 flask and allowed to express protein overnight. The next day, 85 μL of transfected cells (at 200,000 cells/mL) were replated in white nonbinding 96-well plates for live and lytic target engagement measurements. For live mode, a 100x solution of NanoBRET tracer was prepared using 100% DMSO (50 μM for CRBN live-cell, 100 μM for VHL live-cell). 100x tracer was used to prepare 20× tracer using tracer dilution buffer. PROTACs or test compounds were prepared at 10x final concentrations in Opti-MEM. Five μL of the prepared tracer was then dispensed to each well and the plate was mixed on an orbital shaker at 300 rpm for 15 s. Ten μL of each 10x PROTAC dilution was added to the cells and the plate was mixed again before being incubated at a 37 °C, 5% CO2 incubator for 2 or 5 h (as indicated in each figure). After incubation, a 50 μL of a 3X substrate solution (containing 30 μL NanoBRET Nano-Glo Substrate, 10 μL Extracellular NanoLuc inhibitor, and 4960 μL of Opti-MEM) was added to each well. Plates were incubated for 2–3 min at room temperature, then donor emission (450 nm) and acceptor emission (at 610 nm) values were read using a GloMax Discover. For lytic mode, the following changes were made. […] Plates were incubated in darkness for 5 min after digitonin addition to allow for permeabilization. 50 μL of 3X substrate (30 μL NanoBRET Nano-Glo substrate and 4970 μL Opti-MEM) was added to each well and plates were incubated for 1 min at room temperature before being read on a GloMax Discover as above.
Background: BRET reads energy transfer from a luciferase to a nearby fluorophore.

In the next experiment the target is T1, VHL (Homo sapiens, UniProt P40337).
T1 construct: host or cells: HEK293, transient
T1 sequence (P40337 whole entry): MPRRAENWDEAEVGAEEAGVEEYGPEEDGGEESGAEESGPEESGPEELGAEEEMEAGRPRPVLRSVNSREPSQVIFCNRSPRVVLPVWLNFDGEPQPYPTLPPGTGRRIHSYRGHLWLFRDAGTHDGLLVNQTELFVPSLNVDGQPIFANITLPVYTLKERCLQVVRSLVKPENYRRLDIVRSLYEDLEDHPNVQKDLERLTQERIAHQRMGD
Described as above. Format: binding. As to the method:
CRBN (N2910, Promega) and VHL (N2930, Promega) NanoBRET target engagement assays were performed according to manufacturer’s instructions. Transfection complexes were prepared using 1 mL Opti-MEM, 30 μL FuGENE HD, and either 9 μg/mL DDB1 Expression Vector and 1 μg/mL NanoLuc-CRBN fusion vector, or 9 μg/mL Transfection Carrier DNA and 1 μg/mL VHL-NanoLuc fusion vector. Transfection complexes were allowed to form for 20 min at room temperature, then were added to 20 mL of HEK293 cells at density of 200,000 cells/mL. Transfected HEK293 cells were plated in a T75 flask and allowed to express protein overnight. The next day, 85 μL of transfected cells (at 200,000 cells/mL) were replated in white nonbinding 96-well plates for live and lytic target engagement measurements. For live mode, a 100x solution of NanoBRET tracer was prepared using 100% DMSO (50 μM for CRBN live-cell, 100 μM for VHL live-cell). 100x tracer was used to prepare 20× tracer using tracer dilution buffer. PROTACs or test compounds were prepared at 10x final concentrations in Opti-MEM. Five μL of the prepared tracer was then dispensed to each well and the plate was mixed on an orbital shaker at 300 rpm for 15 s. Ten μL of each 10x PROTAC dilution was added to the cells and the plate was mixed again before being incubated at a 37 °C, 5% CO2 incubator for 2 or 5 h (as indicated in each figure). After incubation, a 50 μL of a 3X substrate solution (containing 30 μL NanoBRET Nano-Glo Substrate, 10 μL Extracellular NanoLuc inhibitor, and 4960 μL of Opti-MEM) was added to each well. Plates were incubated for 2–3 min at room temperature, then donor emission (450 nm) and acceptor emission (at 610 nm) values were read using a GloMax Discover. For lytic mode, the following changes were made. 100x tracer concentration for CRBN was 13 μM, 100X tracer concentration for VHL was 25 μM, 75 μL of a 200,000 cell/mL solution was plated in white nonbinding 96-well plates, and 10 μL of a 10x digitonin solution was added immediately after the cells were treated with PROTACs. Plates were incubated in darkness for 5 min after digitonin addition to allow for permeabilization. 50 μL of 3X substrate (30 μL NanoBRET Nano-Glo substrate and 4970 μL Opti-MEM) was added to each well and plates were incubated for 1 min at room temperature before being read on a GloMax Discover as above.

A further experiment deals with RKO CRBN KO cells. Put plainly: Cell viability assay (CellTiter-Glo). Format: cell-based, human. The following applies: 316 pM to 10 μM, 3 days, n = 3 (Figures 5 and 8C, Table S5). For orientation: In ATP-based viability assays light output follows the ATP content of the culture.
Where [1] appears, read: live cells 2 h, read-out: IC50 (Live Cell), Target: CRBN.
[2] abbreviates: lysed with digitonin, read-out: IC50 (Lytic Cell), Target: CRBN.
Where [3] appears, read: HEK293 cells with NanoLuc-VHL, VHL fluorescent tracer, live cells 2 h, read-out: IC50 (Live Cell), Target: VHL.
Setting [4] is: HEK293 cells with NanoLuc-VHL, VHL fluorescent tracer, lysed with digitonin, read-out: IC50 (Lytic Cell), Target: VHL.
[5] abbreviates: displacement of VHL tracer, live cell format, read-out: IC50 VHL, live cell format.

Sequence of CRBN (Q96SW2 whole entry, the tested form may be a part): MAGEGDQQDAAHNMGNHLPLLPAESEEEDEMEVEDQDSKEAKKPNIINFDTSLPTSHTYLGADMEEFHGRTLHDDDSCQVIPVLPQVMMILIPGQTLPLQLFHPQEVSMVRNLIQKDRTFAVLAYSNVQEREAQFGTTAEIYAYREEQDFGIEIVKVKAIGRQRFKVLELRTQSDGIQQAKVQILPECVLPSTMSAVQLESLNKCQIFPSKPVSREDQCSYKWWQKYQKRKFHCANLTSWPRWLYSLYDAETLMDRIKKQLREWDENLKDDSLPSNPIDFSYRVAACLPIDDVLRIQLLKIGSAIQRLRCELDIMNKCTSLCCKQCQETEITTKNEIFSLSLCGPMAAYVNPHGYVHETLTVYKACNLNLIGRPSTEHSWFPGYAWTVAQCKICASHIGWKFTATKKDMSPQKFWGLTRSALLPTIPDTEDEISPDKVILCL
Sequence of CRBN (Q16531 whole entry partner, the tested form may be a part): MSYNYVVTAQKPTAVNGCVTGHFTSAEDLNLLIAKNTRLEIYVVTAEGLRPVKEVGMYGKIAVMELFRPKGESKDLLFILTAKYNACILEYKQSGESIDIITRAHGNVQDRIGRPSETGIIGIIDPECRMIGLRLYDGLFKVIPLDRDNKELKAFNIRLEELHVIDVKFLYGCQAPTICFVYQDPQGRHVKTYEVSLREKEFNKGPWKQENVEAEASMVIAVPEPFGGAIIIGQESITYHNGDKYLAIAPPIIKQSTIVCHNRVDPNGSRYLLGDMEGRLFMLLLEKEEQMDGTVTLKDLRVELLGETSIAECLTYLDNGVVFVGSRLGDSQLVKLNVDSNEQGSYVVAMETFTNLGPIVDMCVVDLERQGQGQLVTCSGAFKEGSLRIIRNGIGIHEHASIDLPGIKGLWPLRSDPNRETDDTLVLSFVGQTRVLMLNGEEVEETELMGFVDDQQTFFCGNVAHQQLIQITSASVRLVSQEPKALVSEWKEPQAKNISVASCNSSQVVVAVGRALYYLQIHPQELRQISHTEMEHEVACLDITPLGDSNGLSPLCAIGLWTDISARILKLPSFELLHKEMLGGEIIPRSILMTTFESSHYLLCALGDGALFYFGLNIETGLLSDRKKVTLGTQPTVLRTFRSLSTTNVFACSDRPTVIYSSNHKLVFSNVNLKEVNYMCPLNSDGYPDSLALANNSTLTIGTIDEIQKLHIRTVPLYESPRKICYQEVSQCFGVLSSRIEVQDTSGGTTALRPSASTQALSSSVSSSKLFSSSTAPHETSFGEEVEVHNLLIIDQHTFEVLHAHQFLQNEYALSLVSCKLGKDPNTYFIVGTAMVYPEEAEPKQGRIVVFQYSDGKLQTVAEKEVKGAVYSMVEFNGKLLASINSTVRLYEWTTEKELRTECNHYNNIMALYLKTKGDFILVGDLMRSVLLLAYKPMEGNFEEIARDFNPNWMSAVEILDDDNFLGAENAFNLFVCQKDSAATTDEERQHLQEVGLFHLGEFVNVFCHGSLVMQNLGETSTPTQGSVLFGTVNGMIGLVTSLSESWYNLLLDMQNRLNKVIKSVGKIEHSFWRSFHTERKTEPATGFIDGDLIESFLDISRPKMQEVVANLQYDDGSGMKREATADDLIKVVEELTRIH

Turning to `Cc1ncsc1-c1ccc(CNC(=O)[C@@H]2C[C@@H](O)CN2C(=O)[C@@H](NC(=O)COCC(C)(COCCOCCOCCNc2cc3c(cc2F)C(=O)N(C2CCC(=O)NC2=O)C3=O)COCCOCCOCCOC(=O)C[C@@H]2N=C(c3ccc(Cl)cc3)c3c(sc(C)c3C)-n3c(C)nnc32)C(C)(C)C)cc1` (mixture of isomers) [AB3063 (26), (17S)-11-((2-(2-(2-((2-(2,6-dioxopiperidin-3-yl)-6-fluoro-1,3-dioxoisoindolin-5-yl)amino)ethoxy)ethoxy)ethoxy)methyl)-17-((2S,4R)-4-hydroxy-2-((4-(4-methylthiazol-5-yl)benzyl)carbamoyl)pyrrolidine-1-carbonyl)-11,18,18-trimethyl-15-oxo-3,6,9,13-tetraoxa-16-azanonadecyl 2-((S)-4-(4-chlorophenyl)-2,3,9-trimethyl-6H-thieno[3,2-f][1,2,4]triazolo[4,3-a][1,4]diazepin-6-yl)acetate], the IC50 at CRBN (setting [1]) is 1560 nM; on CRBN (setting [2]), 412 nM; on VHL (setting [3]), greater than 10000 nM; on VHL (setting [4]), 1820 nM; at VHL (setting [5]), 2300 nM; on VHL (displacement of VHL tracer, lytic format, read-out: IC50 VHL, lytic format), 1820 nM. Moreover, on VHL (live vs lytic), the “fold weaker at engaging VHL in live cell format than in lytic format” value was greater than 5.5 fold.

For the molecule `Cc1ncsc1-c1ccc([C@H](C)NC(=O)[C@@H]2C[C@@H](O)CN2C(=O)[C@@H](NC(=O)COCC(C)(COCCOCCOCCNc2cc3c(cc2F)C(=O)N(C2CCC(=O)NC2=O)C3=O)COCCOCCOCCOC(=O)C[C@@H]2N=C(c3ccc(Cl)cc3)c3c(sc(C)c3C)-n3c(C)nnc32)C(C)(C)C)cc1` (mixture of isomers) [AB3067 (27), (17S)-11-((2-(2-(2-((2-(2,6-dioxopiperidin-3-yl)-6-fluoro-1,3-dioxoisoindolin-5-yl)amino)ethoxy)ethoxy)ethoxy)methyl)-17-((2S,4R)-4-hydroxy-2-(((S)-1-(4-(4-methylthiazol-5-yl)phenyl)ethyl)carbamoyl)pyrrolidine-1-carbonyl)-11,18,18-trimethyl-15-oxo-3,6,9,13-tetraoxa-16-azanonadecyl 2-((S)-4-(4-chlorophenyl)-2,3,9-trimethyl-6H-thieno[3,2-f][1,2,4]triazolo[4,3-a][1,4]diazepin-6-yl)acetate], the EC50 with RKO CRBN KO cells (listed as 27) is 133 nM; with RKO CRBN KO cells (Homo sapiens, 72 h) it was 180 nM. For the same molecule, the “fold stronger engagement of CRBN over 26, live cell format” value at CRBN (27 vs 26) worked out at 2.5 fold. In addition, the 50% inhibitory concentration (IC50) at CRBN (setting [1]) is 624 nM; at CRBN (setting [2]), 190 nM; at VHL (setting [3]), 2280 nM; at VHL (setting [4]), 559 nM; on VHL (setting [5]), greater than 10000 nM. Besides, at VHL (27 vs 26), the “fold stronger binding to VHL with respect to 26, live cell format” value was greater than 4.4 fold.

As for `Cc1ncsc1-c1ccc(CNC(=O)[C@@H]2C[C@@H](O)CN2C(=O)[C@@H](NC(=O)COCC(COCCOCCOCCNc2cc3c(cc2F)C(=O)N(C2CCC(=O)NC2=O)C3=O)(COCCOCCOCCOC(=O)C[C@@H]2N=C(c3ccc(Cl)cc3)c3c(sc(C)c3C)-n3c(C)nnc32)COCCOCCOCCOC(=O)C[C@@H]2N=C(c3ccc(Cl)cc3)c3c(sc(C)c3C)-n3c(C)nnc32)C(C)(C)C)cc1` (mixture of isomers) [AB3124 (86)], the EC50 in the experiment on RKO CRBN KO cells (listed as 86) amounted to 62 nM; in the experiment on RKO CRBN KO cells (Homo sapiens, 72 h) it was 34 nM.

For `Cc1ncsc1-c1ccc([C@H](C)NC(=O)[C@@H]2C[C@H](O)CN2C(=O)[C@@H](NC(=O)COCC(C)(COCCOCCOCCNc2cc3c(cc2F)C(=O)N(C2CCC(=O)NC2=O)C3=O)COCCOCCOCCOC(=O)C[C@@H]2N=C(c3ccc(Cl)cc3)c3c(sc(C)c3C)-n3c(C)nnc32)C(C)(C)C)cc1` (mixture of isomers) [cis-AB3067 (94), (17S)-11-((2-(2-(2-((2-(2,6-dioxopiperidin-3-yl)-6-fluoro-1,3-dioxoisoindolin-5-yl)amino)ethoxy)ethoxy)ethoxy)methyl)-17-((2S,4S)-4-hydroxy-2-(((S)-1-(4-(4-methylthiazol-5-yl)phenyl)ethyl)carbamoyl)pyrrolidine-1-carbonyl)-11,18,18-trimethyl-15-oxo-3,6,9,13-tetraoxa-16-azanonadecyl 2-((S)-4-(4-chlorophenyl)-2,3,9-trimethyl-6H-thieno[3,2-f][1,2,4]triazolo[4,3-a][1,4]diazepin-6-yl)acetate], on CRBN (lytic, live cell 2 h and 5 h (Figure S6), listed as 94), the “CRBN engagement compared to 27 (in words)” value is on record as “slight improvement in binding to CRBN after 2 h; also recorded: even greater binding to CRBN after 5 h compared to 27”.
